# ChEMBL document CHEMBL1132774, “Tetrahydroisoquinoline derivatives containing a benzenesulfonamide moiety as potent, selective human beta3 adrenergic receptor agonists” (Bioorg Med Chem Lett, 2000)
# Experiments:
# [1] = biological target: T1, Beta-2 adrenergic receptor (Homo sapiens, UniProt P07550); test: Compound was evaluated for its inhibitory activity against human beta-2 adrenergic receptor (AR); format: functional
# Target sequence in this assay (P07550 whole entry): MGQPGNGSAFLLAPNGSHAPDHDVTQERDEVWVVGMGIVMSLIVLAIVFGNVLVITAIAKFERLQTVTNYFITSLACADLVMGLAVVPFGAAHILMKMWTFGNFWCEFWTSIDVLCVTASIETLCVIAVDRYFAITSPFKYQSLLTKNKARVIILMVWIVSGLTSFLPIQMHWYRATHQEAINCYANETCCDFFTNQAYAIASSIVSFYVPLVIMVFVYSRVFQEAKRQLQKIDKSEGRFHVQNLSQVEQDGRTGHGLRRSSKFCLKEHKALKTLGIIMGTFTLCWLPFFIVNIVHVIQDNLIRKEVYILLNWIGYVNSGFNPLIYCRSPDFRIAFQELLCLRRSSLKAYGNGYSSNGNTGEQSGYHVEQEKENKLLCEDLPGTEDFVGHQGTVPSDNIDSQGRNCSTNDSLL
# [2] = biological target: T2, Beta-3 adrenergic receptor (Homo sapiens, UniProt P13945); test: Adenylyl cyclase activation at human beta-3 adrenergic receptor (AR); format: functional; design: concentration or dose not given beside the values
# Target sequence in this assay (P13945 whole entry, looked up): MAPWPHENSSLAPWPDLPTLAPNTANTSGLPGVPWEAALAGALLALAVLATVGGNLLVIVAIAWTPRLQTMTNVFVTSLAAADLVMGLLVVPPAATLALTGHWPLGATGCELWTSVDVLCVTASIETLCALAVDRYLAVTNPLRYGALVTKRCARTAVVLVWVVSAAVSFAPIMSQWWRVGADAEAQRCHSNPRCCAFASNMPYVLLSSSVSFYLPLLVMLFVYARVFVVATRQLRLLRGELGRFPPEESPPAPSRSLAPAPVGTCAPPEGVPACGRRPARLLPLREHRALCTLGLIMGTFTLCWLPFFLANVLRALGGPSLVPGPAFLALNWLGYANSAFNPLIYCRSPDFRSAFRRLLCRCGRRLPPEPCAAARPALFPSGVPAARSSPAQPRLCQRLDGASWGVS
# [3] = biological target: T3, Beta-1 adrenergic receptor (Homo sapiens, UniProt P08588); test: Compound was evaluated for its inhibitory activity against human beta-1 adrenergic receptor (AR); format: functional
# Target sequence in this assay (P08588 whole entry): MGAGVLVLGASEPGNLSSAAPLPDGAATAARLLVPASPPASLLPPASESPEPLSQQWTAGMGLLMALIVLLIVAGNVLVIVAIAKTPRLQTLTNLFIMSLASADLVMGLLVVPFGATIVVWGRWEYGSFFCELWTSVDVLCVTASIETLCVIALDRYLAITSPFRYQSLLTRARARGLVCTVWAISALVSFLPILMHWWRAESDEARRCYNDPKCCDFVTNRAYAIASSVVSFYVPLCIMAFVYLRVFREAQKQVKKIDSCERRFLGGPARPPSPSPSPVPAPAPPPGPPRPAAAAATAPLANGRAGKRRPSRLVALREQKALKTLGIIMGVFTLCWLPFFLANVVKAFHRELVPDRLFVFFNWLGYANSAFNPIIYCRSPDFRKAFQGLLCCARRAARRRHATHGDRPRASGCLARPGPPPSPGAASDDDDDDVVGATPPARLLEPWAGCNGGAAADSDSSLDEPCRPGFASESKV
# [4] = biological target: T3, Beta-1 adrenergic receptor; test: Compound was evaluated for its inhibitory activity against CHO cells expressing the cloned human beta-1 adrenergic receptor (AR) in the presence of [125I]iodocyanopindolol; format: functional, cell-based
# Target sequence in this assay (P08588 whole entry): as above
# [5] = biological target: T1, Beta-2 adrenergic receptor; test: Inhibitory activity against CHO cells expressing human Beta-2 adrenergic receptor with [125I]-iodocyanopindolol; format: cell-based
# Target sequence in this assay (P07550 whole entry): as the sequence (P07550 whole entry) above
# [6] = biological target: T2, Beta-3 adrenergic receptor; test: Inhibitory activity against human beta-3 adrenergic receptor (AR); format: functional
# Target sequence in this assay (P13945 whole entry): as the sequence (P13945 whole entry, looked up) above
# [7] = biological target: T3, Beta-1 adrenergic receptor; test: (§1) Compound was evaluated for its adenylyl cyclase activation at human beta-1 adrenergic receptor (AR); format: functional; design: concentration or dose not given beside the values
# Target sequence in this assay (P08588 whole entry, looked up): as the sequence (P08588 whole entry) above
# [8] = biological target: T1, Beta-2 adrenergic receptor; test: Compound was evaluated for its adenylyl cyclase activation at human beta-2 adrenergic receptor (AR); format: functional
# Target sequence in this assay (P07550 whole entry, looked up): as the sequence (P07550 whole entry) above
# [9] = biological target: T1, Beta-2 adrenergic receptor; test: Compound was evaluated for its inhibitory activity against CHO cells expressing the cloned human beta-2 adrenergic receptor (AR) in the presence of [125I]-iodocyanopindolol; format: functional, cell-based
# Target sequence in this assay (P07550 whole entry): as above
# [10] = biological target: T3, Beta-1 adrenergic receptor; test: Compound was evaluated for its inhibitory activity against CHO cells expressing the cloned human Beta-1 adrenergic receptor in the presence of [125I]iodocyanopindolol; format: cell-based
# Target sequence in this assay (P08588 whole entry): as the sequence (P08588 whole entry) above
# [11] = biological target: T3, Beta-1 adrenergic receptor; test: Compound was evaluated for its inhibitory activity against CHO cells expressing the cloned human beta-1 adrenergic receptor (AR) in the presence of [125I]-iodocyanopindolol; format: cell-based
# Target sequence in this assay (P08588 whole entry): as above
# [12] = biological target: T2, Beta-3 adrenergic receptor; test: Compound was evaluated for its inhibitory activity against human beta-3 adrenergic receptor (AR) at a concentration of 100 nM; format: functional
# Target sequence in this assay (P13945 whole entry): as the sequence (P13945 whole entry, looked up) above
# [13] = biological target: T3, Beta-1 adrenergic receptor; test: as §1
# Target sequence in this assay (P08588 whole entry, looked up): as the sequence (P08588 whole entry) above
EC50 [1] [nM],Activation [2] [%],EC50 [3] [nM],IC50 [4] [nM],IC50 [5] [nM],EC50 [6] [nM],Activation [7] [%],Activation [8] [%],IC50 [9] [nM],IC50 [10] [nM],EC50 [12] [nM],Activation [13] [%],Compound,IC50 [11] [nM]
> 1000,64,> 1000,100000,100000,600,12,33,,,,,CCCCCCNC(=O)Nc1ccc(S(=O)(=O)Nc2ccc(-c3cccc(CC4NCCc5cc(O)c(O)cc54)c3)cc2)cc1 (stereo not given),
340,91,1800,3000,,6,44,,3400,,,,CCCCCCNC(=O)Nc1ccc(S(=O)(=O)Nc2ccc(-c3ccc(CC4NCCc5cc(O)c(O)cc54)cc3)cc2)cc1 (stereo not given),
,92,,,,1.7,,,,,,,COc1cc(C[C@@H]2NCCc3cc(O)c(O)cc32)cc(OC)c1OC [TRETOQUINOL],
,72,,,> 100000,78,,,,80000,,,CCCCCCNC(=O)Nc1ccc(S(=O)(=O)Nc2ccc3cc(OCC4NCCc5cc(O)c(O)cc54)ccc3c2)cc1 (stereo not given),
2700,62,> 10000,530,710,360,22,,,,,,CCCCCCNC(=O)Nc1ccc(S(=O)(=O)Nc2cccc(-c3cccc(CC4NCCc5cc(O)c(O)cc54)c3)c2)cc1 (stereo not given),
,36,,,56,800,,,,,,,COc1c(I)cc(CC2NCCc3nc(N)sc32)cc1I (stereo not given),
,,,,990,,,,,6500,10,,CCCCCCNC(=O)Nc1ccc(S(=O)(=O)Nc2cccc(-c3ccc(OCC4NCCc5cc(O)c(O)cc54)cc3)c2)cc1 (stereo not given),
1300,100,970,10000,,140,69,,32000,,,,CCCCCCNC(=O)Nc1ccc(S(=O)(=O)Nc2cccc(-c3ccc(CC4NCCc5cc(O)c(O)cc54)cc3)c2)cc1 (stereo not given),
,,,,300,,,,,1000,7,,CCCCCCNC(=O)Nc1ccc(S(=O)(=O)Nc2ccc3cc(CC4NCCc5cc(O)c(O)cc54)ccc3c2)cc1 (stereo not given),
580,72,2400,,,16,,,160,2000,,23,CCCCCCNC(=O)Nc1ccc(S(=O)(=O)Nc2ccc(-c3ccc(OCC4NCCc5cc(O)c(O)cc54)cc3)cc2)cc1 (stereo not given),

Compound,EC50 [1] [nM],Activation [2] [%],EC50 [3] [nM],IC50 [4] [nM],IC50 [5] [nM],EC50 [6] [nM],Activation [7] [%],Activation [8] [%],IC50 [9] [nM],IC50 [10] [nM],EC50 [12] [nM],Activation [13] [%],IC50 [11] [nM]
COc1cc(-c2ccc(CC3NCCc4cc(O)c(O)cc43)cc2)cc(OC)c1OC (stereo not given),1500,77,6100,,760,27,45,,,,,,1800
CCCCCCNC(=O)Nc1ccc(S(=O)(=O)Nc2ccc(CC3NCCc4cc(O)c(O)cc43)cc2)cc1 (stereo not given),,82,,,200,66,,,,1200,,,
CCCCCCNC(=O)Nc1ccc(S(=O)(=O)Nc2ccc(OCC3NCCc4cc(O)c(O)cc43)cc2)cc1 (stereo not given),,,,,300,,,,,1000,4,,
